Source: patent US9801878B2, “Quinoline derivatives as PDE10A enzyme inhibitors” (H. Lundbeck A/S, priority 2011, dated 2017)
pIC50: −log10 of the molar value.

Tests used:
[1] = molecular target: PDE10A enzyme (Homo sapiens (Human), UniProt Q9Y233); assay: PDE10A inhibition assay; format: biochemical
Procedure: Active PDE10A enzyme is prepared in a number of ways for use in PDE assays (Loughney, K. et al. Gene 1999, 234, 109-117; Fujishige, K. et al. Eur J Biochem. 1999, 266, 1118-1127 and Soderling, S. et al. Proc. Natl. Acad. Sci. 1999, 96, 7071-7076). PDE10A can be expressed as full-length proteins or as truncated proteins, as long as they express the catalytic domain. PDE10A can be prepared in different cell types, for example insect cells or E. coli. […]
A PDE10A assay may for example, be performed as follows: The assay is performed in 60 uL samples containing a fixed amount of the relevant PDE enzyme (sufficient to convert 20-25% of the cyclic nucleotide substrate), a buffer (50 mM HEPES7.6; 10 mM MgCl2; 0.02% Tween20), 0.1 mg/ml BSA, 225 pCi of ^3H-labelled cyclic nucleotide substrate, tritium labeled cAMP to a final concentration of 5 nM and varying amounts of inhibitors. […] The beads are allowed to settle for one hr in the dark before the plates are counted in a Wallac 1450 Microbeta counter. The measured signal can be converted to activity relative to an uninhibited control (100%) and IC50 values can be calculated using the Xlfit extension to EXCEL.

[2] = rats, cited from earlier work
[3] = rats; cited from earlier work
[4] = rats; cited from earlier work; remark: listed apart in the source

PDE10A enzyme, sequence (Q9Y233 716-1055): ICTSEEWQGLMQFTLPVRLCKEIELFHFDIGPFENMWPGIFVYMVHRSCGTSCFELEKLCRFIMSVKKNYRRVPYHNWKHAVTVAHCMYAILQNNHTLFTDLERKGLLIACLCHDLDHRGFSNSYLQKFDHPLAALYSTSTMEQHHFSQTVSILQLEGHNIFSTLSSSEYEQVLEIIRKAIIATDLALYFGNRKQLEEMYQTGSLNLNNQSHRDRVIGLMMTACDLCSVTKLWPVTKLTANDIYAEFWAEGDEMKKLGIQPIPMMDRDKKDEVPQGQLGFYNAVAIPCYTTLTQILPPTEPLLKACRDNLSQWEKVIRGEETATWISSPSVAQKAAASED

SMILES: Cc1ncc(C)n2nc(CCc3ccc4ccccc4n3)nc12 [2-[2-(5,8-Dimethyl-[1,2,4]triazolo[1,5-a]pyrazin-2-yl)-ethyl]-quinoline]
- pIC50 [1]: 8.13

SMILES: COc1ccc(Cc2nccc3cc(OC)c(OC)cc23)cc1OC [Papaverine]
- catalepsy on its own ([2]; alone): did not cause catalepsy on its own
- cataleptic effect of the D2 receptor antagonist haloperidol ([2]; with haloperidol): potentiated the cataleptic effect
- hyperactivity induced by PCP [3]: reduced hyperactivity
- reduction of amphetamine induced hyperactivity [4]: insignificant
